For experiment [1], the species on record is Rattus norvegicus. Description: Displacement of [3H]diazepam from central benzodiazepine receptor in Wistar rat […] by scintillation counting. (In a radioligand displacement assay an active substance lowers the binding of a labelled ligand.)
The target in experiment [2] is Translocator protein (Rattus norvegicus, UniProt P16257). Description: Displacement of [3H]PK11195 from TSPO in rat cortex.
For experiment [3], the target named is Translocator protein (Homo sapiens) (UniProt P30536). Description: Displacement of [3H]Ro5-4864 from TSPO in putamen of healthy human. The conditions noted are these: tested as the 3H-labelled form.
Translocator protein (Homo sapiens), sequence (P30536 whole entry): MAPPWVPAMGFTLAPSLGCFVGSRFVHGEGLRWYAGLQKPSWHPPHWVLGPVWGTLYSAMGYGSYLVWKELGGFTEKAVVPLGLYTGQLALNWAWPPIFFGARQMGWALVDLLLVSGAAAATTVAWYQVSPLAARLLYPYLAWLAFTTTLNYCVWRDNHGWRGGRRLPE
Experiment [4] relates to U-937. Description: Antiapoptotic activity against TNF-alpha-induced apoptosis in human U937 cells. The class given is functional.
Experiment [5] has as its target Translocator protein (Mus musculus) (UniProt P50637). In words: Binding affinity to mitochondrial TSPO in mouse MA10 cells in presence of human chorionic gonadotropin. The class given is cell-based.
Experiment [6] concerns the target Translocator protein (Homo sapiens) (UniProt P30536). Description: Displacement of [3H]Ro5-4864 from TSPO.
The species named for experiment [7] is Rattus norvegicus. In words: Displacement of [3H]Ro5-4864 from GABAA receptor in rat brain membrane. The class given is cell membranes.
Experiment [8] has as its system U-937. Description: Induction of apoptosis in human U937 cells. The class given is functional.
Experiment [9] addresses Translocator protein (Homo sapiens) (UniProt P30536). Description: Displacement of [3H]Ro5-4864 from TSPO in caudate nucleus of patient with Huntington's disease. Particulars: tested as the 3H-labelled form.
Experiment [10] shares this target. In words: Binding affinity to TSPO in white matter of patient with Alzheimer's disease. Particulars: tested as the 125I-labelled form. In kind it is tissue-based.
The target is the same in experiment [11]. Description: Binding affinity to TSPO in white matter of healthy human. In kind it is tissue-based. The conditions noted are these: tested as the 125I-labelled form.
The target is the same in experiment [12]. Description: Binding affinity to TSPO in parietal lobe of healthy human. In kind it is tissue-based. Particulars: tested as the 125I-labelled form.
The target is the same in experiment [13]. Description: Binding affinity to TSPO in temporal lobe of healthy human. In kind it is tissue-based. Particulars: tested as the 125I-labelled form.
Experiment [14] shares this target. Description: Binding affinity to TSPO in parietal lobe of patient with Alzheimer's disease. Particulars: tested as the 125I-labelled form.
Experiment [15] shares this target. Description: Binding affinity to TSPO in temporal lobe of patient with Alzheimer's disease. Particulars: tested as the 125I-labelled form.

For five compounds, Activity, Ki and Bmax results are on record in ChEMBL document CHEMBL1143368, “The translocator protein (18 kDa): central nervous system disease and drug design” (J Med Chem, 2009).

SMILES strings stand for the structures.

As usually defined, the Ki is the dissociation constant of the complex between target and ligand, obtained from inhibition or displacement.

Translocator protein, sequence (P16257 whole entry, looked up): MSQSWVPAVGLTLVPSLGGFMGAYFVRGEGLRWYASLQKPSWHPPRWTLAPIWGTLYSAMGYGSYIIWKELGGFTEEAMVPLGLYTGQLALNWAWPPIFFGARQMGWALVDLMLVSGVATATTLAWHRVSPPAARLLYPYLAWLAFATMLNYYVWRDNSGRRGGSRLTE
Translocator protein (Mus musculus), sequence (P50637 whole entry, looked up): as the sequence (P16257 whole entry, looked up) above, with S2P, Q3E, I67V, E77D, V110A, M113L, M149V, T168P counted along it

Consider `CN1C(=O)CN=C(c2ccccc2)c2cc(Cl)ccc21`, for which the Activity in experiment [1] turned out to be 40 nM.

In experiment [2], `CC(=O)N(Cc1ccccc1OC(C)C)c1ccc(Cl)cc1Oc1ccccc1` returned an inhibition constant Ki of 0.92 nM.

For the compound `CCCCCCN(CCCCCC)C(=O)Cc1c(-c2ccc(F)cc2)[nH]c2ccccc12`, the affinity in experiment [2] corresponds to a Ki of 5 nM.

Turning to `CN1C(=O)CN=C(c2ccc(Cl)cc2)c2cc(Cl)ccc21` [RO-54864], the Bmax was determined as 40.7 fmol/mg in experiment [3] and 61.7 fmol/mg in experiment [9]. The Activity is 10 µM in experiment [4]; 0.2 nM in [5]; 7.3 nM in [6]; 163 µM in experiment [7]; over 10 µM in experiment [8].

For `COc1ccc(OC)c(CN(C(C)=O)c2cc(I)ccc2Oc2ccccc2)c1`, the Bmax in experiment [10] is 1.12 fmol/mg; in experiment [11], 0.24 fmol/mg; in [12] it was 0.32 fmol/mg; in [13], 0.22 fmol/mg; in experiment [14], 1.26 fmol/mg; in experiment [15], 1.02 fmol/mg.
